± gives the expanded uncertainty stated by the source.
Test: xn = mol fraction of the nth substance listed
Settings: 101 kPa, Liquid; for speed of sound: Sing-around technique in a fixed-path interferometer

CCOC(C)(C)C [2-ethoxy-2-methylpropane] + Cc1ccccc1C
Settings	mass density, 305.65 K [kg/m3]	mass density, 308.15 K [kg/m3]	mass density, 310.65 K [kg/m3]	mass density, 313.15 K [kg/m3]	speed of sound, 308.15 K [m/s]	speed of sound, 310.65 K [m/s]	speed of sound, 313.15 K [m/s]	speed of sound, 315.65 K [m/s]
x1 = 0.055	860.769 ± 0.41	858.631 ± 0.41	856.488 ± 0.41	854.337 ± 0.41	1287.6 ± 2.2	1277.2 ± 2.2	1267.1 ± 2.2	1256.9 ± 2.2
x1 = 0.098	854.986 ± 0.41	852.826 ± 0.42	850.664 ± 0.42	848.496 ± 0.42	1274.8 ± 2.2	1264.8 ± 2.2	1254.7 ± 2.2	1244.6 ± 2.2
x1 = 0.201	840.317 ± 0.43	838.108 ± 0.44	835.894 ± 0.44	833.676 ± 0.44	1241.4 ± 2.2	1231.1 ± 2.2	1220.9 ± 2.2	1210.7 ± 2.2
x1 = 0.307	825.151 ± 0.46	822.889 ± 0.46	820.623 ± 0.46	818.351 ± 0.47	1205.4 ± 2.2	1195 ± 2.2	1184.6 ± 2.2	1174.3 ± 2.2
x1 = 0.4	811.766 ± 0.47	809.458 ± 0.48	807.147 ± 0.48	804.83 ± 0.48	1176.8 ± 2.2	1166.3 ± 2.2	1155.9 ± 2.2	1145.5 ± 2.2
x1 = 0.502	797.158 ± 0.49	794.798 ± 0.5	792.433 ± 0.5	790.061 ± 0.51	1143 ± 2.2	1132.4 ± 2.2	1121.9 ± 2.2	1111.4 ± 2.2
x1 = 0.601	783.634 ± 0.51	781.229 ± 0.52	778.816 ± 0.52	776.395 ± 0.52	1112.4 ± 2.2	1101.8 ± 2.2	1091.1 ± 2.2	–
x1 = 0.661	775.073 ± 0.53	772.636 ± 0.53	770.192 ± 0.53	767.738 ± 0.54	1093.1 ± 2.2	1082.4 ± 2.2	1071.7 ± 2.2	–
x1 = 0.803	755.208 ± 0.56	752.697 ± 0.56	750.176 ± 0.56	747.65 ± 0.57	1049.4 ± 2.2	1038.6 ± 2.2	1027.7 ± 2.2	–
x1 = 0.895	742.232 ± 0.57	739.673 ± 0.58	737.1 ± 0.58	734.522 ± 0.58	1022.1 ± 2.2	1011.2 ± 2.2	1000.3 ± 2.2	–
x1 = 0.947	735.025 ± 0.58	732.438 ± 0.59	729.838 ± 0.59	727.227 ± 0.6	1007 ± 2.2	996 ± 2.2	985.03 ± 2.2	–
x1 = 1	727.038 ± 0.58	724.443 ± 0.58	721.826 ± 0.59	719.179 ± 0.59	986.39 ± 2.2	975.42 ± 2.2	964.53 ± 2.2	–

From the NIST ThermoML archive (doi:10.1016/j.fluid.2008.03.004)
